Results taken from ChEMBL document CHEMBL4004803, “Syntheses and antibacterial activity of soluble 9-bromo substituted indolizinoquinoline-5,12-dione derivatives” (Eur J Med Chem, 2017).

Assays:
Assay type in all cases: functional
[1] = tested on: Escherichia coli; assay: Antibacterial activity against Escherichia coli ATCC 25922 after 20 to 24 hrs by two-fold microdilution method
[2] = tested on: Staphylococcus aureus; assay: Antibacterial activity against […] Staphylococcus aureus ATCC 25923 after 20 to 24 hrs by two-fold microdilution method
[3] = tested on: Staphylococcus aureus; assay: Antibacterial activity against methicillin-resistant Staphylococcus aureus ATCC 43300 after 20 to 24 hrs by two-fold microdilution method
[4] = tested on: Staphylococcus haemolyticus; assay: Antibacterial activity against Staphylococcus haemolyticus CICC 10373 after 20 to 24 hrs by two-fold microdilution method
[5] = tested on: Staphylococcus epidermidis; assay: Antibacterial activity against Staphylococcus epidermidis ATCC 12228 after 20 to 24 hrs by two-fold microdilution method
[6] = tested on: Staphylococcus aureus; assay: Antibacterial activity against methicillin-resistant Staphylococcus aureus 202045 clinical isolate after 20 to 24 hrs by two-fold microdilution method
[7] = tested on: Staphylococcus aureus; assay: Antibacterial activity against methicillin-resistant Staphylococcus aureus 122045 clinical isolate after 20 to 24 hrs by two-fold microdilution method
[8] = tested on: Staphylococcus aureus; assay: Antibacterial activity against methicillin-resistant Staphylococcus aureus 212014 clinical isolate after 20 to 24 hrs by two-fold microdilution method
[9] = tested on: Staphylococcus aureus; assay: Antibacterial activity against methicillin-resistant Staphylococcus aureus 305026 clinical isolate after 20 to 24 hrs by two-fold microdilution method
[10] = tested on: Staphylococcus aureus; assay: Antibacterial activity against methicillin-resistant Staphylococcus aureus 103054 clinical isolate after 20 to 24 hrs by two-fold microdilution method
[11] = tested on: Staphylococcus aureus; assay: Antibacterial activity against methicillin-resistant Staphylococcus aureus 1029025 clinical isolate after 20 to 24 hrs by two-fold microdilution method
[12] = tested on: Staphylococcus aureus; assay: Antibacterial activity against methicillin-resistant Staphylococcus aureus 120827 clinical isolate after 20 to 24 hrs by two-fold microdilution method
[13] = tested on: Staphylococcus aureus; assay: Antibacterial activity against methicillin-resistant Staphylococcus aureus 110834 clinical isolate after 20 to 24 hrs by two-fold microdilution method
[14] = tested on: Staphylococcus aureus; assay: Antibacterial activity against methicillin-resistant Staphylococcus aureus GLH14 clinical isolate after 20 to 24 hrs by two-fold microdilution method
[15] = tested on: Staphylococcus aureus; assay: Antibacterial activity against methicillin-resistant Staphylococcus aureus GLH15 clinical isolate after 20 to 24 hrs by two-fold microdilution method
[16] = tested on: Staphylococcus aureus; assay: Antibacterial activity against methicillin-resistant Staphylococcus aureus 122710-2 clinical isolate after 20 to 24 hrs by two-fold microdilution method
[17] = tested on: Staphylococcus aureus; assay: Antibacterial activity against methicillin-resistant Staphylococcus aureus 122820-2 clinical isolate after 20 to 24 hrs by two-fold microdilution method
[18] = tested on: Staphylococcus aureus; assay: Antibacterial activity against methicillin-resistant Staphylococcus aureus 123152 clinical isolate after 20 to 24 hrs by two-fold microdilution method
[19] = tested on: Staphylococcus aureus; assay: Antibacterial activity against methicillin-resistant Staphylococcus aureus 11819 clinical isolate after 20 to 24 hrs by two-fold microdilution method
[20] = tested on: Staphylococcus aureus; assay: Antibacterial activity against methicillin-resistant Staphylococcus aureus 20534 clinical isolate after 20 to 24 hrs by two-fold microdilution method
[21] = tested on: Staphylococcus aureus; assay: Antibacterial activity against methicillin-resistant Staphylococcus aureus 224001 clinical isolate after 20 to 24 hrs by two-fold microdilution method
[22] = tested on: Staphylococcus aureus; assay: Antibacterial activity against methicillin-resistant Staphylococcus aureus 316038 clinical isolate after 20 to 24 hrs by two-fold microdilution method
[23] = tested on: Staphylococcus aureus; assay: Antibacterial activity against methicillin-resistant Staphylococcus aureus 518036 clinical isolate after 20 to 24 hrs by two-fold microdilution method
[24] = tested on: Staphylococcus aureus; assay: Antibacterial activity against methicillin-resistant Staphylococcus aureus 519030 clinical isolate after 20 to 24 hrs by two-fold microdilution method
[25] = tested on: Staphylococcus aureus; assay: Antibacterial activity against methicillin-resistant Staphylococcus aureus 531026 clinical isolate after 20 to 24 hrs by two-fold microdilution method
[26] = tested on: Staphylococcus aureus; assay: Antibacterial activity against methicillin-resistant Staphylococcus aureus 614019 clinical isolate after 20 to 24 hrs by two-fold microdilution method
[27] = tested on: Staphylococcus aureus; assay: Antibacterial activity against methicillin-resistant Staphylococcus aureus 503025 clinical isolate after 20 to 24 hrs by two-fold microdilution method
[28] = tested on: Staphylococcus aureus; assay: Antibacterial activity against methicillin-resistant Staphylococcus aureus 724244 clinical isolate after 20 to 24 hrs by two-fold microdilution method
[29] = tested on: Staphylococcus aureus; assay: Antibacterial activity against methicillin-resistant Staphylococcus aureus 829034 clinical isolate after 20 to 24 hrs by two-fold microdilution method
[30] = tested on: Staphylococcus aureus; assay: Antibacterial activity against methicillin-resistant Staphylococcus aureus 908046 clinical isolate after 20 to 24 hrs by two-fold microdilution method
[31] = tested on: Staphylococcus aureus; assay: Antibacterial activity against methicillin-resistant Staphylococcus aureus 1012039 clinical isolate after 20 to 24 hrs by two-fold microdilution method
[32] = tested on: Staphylococcus aureus; assay: Antibacterial activity against methicillin-resistant Staphylococcus aureus 1026021 clinical isolate after 20 to 24 hrs by two-fold microdilution method
[33] = tested on: Staphylococcus aureus; assay: Antibacterial activity against methicillin-resistant Staphylococcus aureus 1025022 clinical isolate after 20 to 24 hrs by two-fold microdilution method
[34] = tested on: Staphylococcus aureus; assay: Antibacterial activity against methicillin-resistant Staphylococcus aureus 1024004-2 clinical isolate after 20 to 24 hrs by two-fold microdilution method
[35] = tested on: Staphylococcus aureus; assay: Antibacterial activity against methicillin-resistant Staphylococcus aureus 1026211 clinical isolate after 20 to 24 hrs by two-fold microdilution method
[36] = tested on: Staphylococcus aureus; assay: Antibacterial activity against methicillin-resistant Staphylococcus aureus 1211026 clinical isolate after 20 to 24 hrs by two-fold microdilution method
[37] = tested on: Staphylococcus aureus; assay: Antibacterial activity against methicillin-resistant Staphylococcus aureus 1212221 clinical isolate after 20 to 24 hrs by two-fold microdilution method
[38] = tested on: Staphylococcus aureus; assay: Antibacterial activity against methicillin-resistant Staphylococcus aureus 1103006 clinical isolate after 20 to 24 hrs by two-fold microdilution method
[39] = tested on: Staphylococcus aureus; assay: Antibacterial activity against methicillin-resistant Staphylococcus aureus 1107027 clinical isolate after 20 to 24 hrs by two-fold microdilution method
[40] = tested on: Staphylococcus aureus; assay: Antibacterial activity against methicillin-resistant Staphylococcus aureus 1111047-1 clinical isolate after 20 to 24 hrs by two-fold microdilution method
[41] = tested on: Staphylococcus aureus; assay: Antibacterial activity against methicillin-resistant Staphylococcus aureus 1128040 clinical isolate after 20 to 24 hrs by two-fold microdilution method
[42] = tested on: Staphylococcus aureus; assay: Antibacterial activity against methicillin-resistant Staphylococcus aureus 1212057-1 clinical isolate after 20 to 24 hrs by two-fold microdilution method
[43] = tested on: Staphylococcus aureus; assay: Antibacterial activity against methicillin-resistant Staphylococcus aureus 1214023 clinical isolate after 20 to 24 hrs by two-fold microdilution method
[44] = tested on: Staphylococcus aureus; assay: Antibacterial activity against methicillin-resistant Staphylococcus aureus 1216052 clinical isolate after 20 to 24 hrs by two-fold microdilution method
[45] = tested on: Staphylococcus aureus; assay: Antibacterial activity against methicillin-resistant Staphylococcus aureus 10844 clinical isolate after 20 to 24 hrs by two-fold microdilution method
[46] = tested on: Staphylococcus aureus; assay: Antibacterial activity against methicillin-resistant Staphylococcus aureus 112047 clinical isolate after 20 to 24 hrs by two-fold microdilution method
[47] = tested on: Staphylococcus aureus; assay: Antibacterial activity against methicillin-resistant Staphylococcus aureus 125025 clinical isolate after 20 to 24 hrs by two-fold microdilution method

Measured: MIC

CN(C)CCCCCOC(=O)c1c2c(n3cc(Br)ccc13)C(=O)c1ncccc1C2=O
4 µg/mL: [44]
1 µg/mL: [1]
≤ 0.0078 µg/mL: [2] | [3] | [5] | [43]
16 µg/mL: [32] | [38]
0.125 µg/mL: [9] | [17] | [19] | [26] | [28] | [31] | [37] | [42] | [46]
0.5 µg/mL: [6] | [10] | [13] | [14] | [20] | [21] | [24] | [25] | [27] | [29] | [33] | [34] | [39] | [40] | [47]
0.063 µg/mL: [8] | [30] | [35]
0.25 µg/mL: [4] | [7] | [11] | [12] | [15] | [16] | [18] | [22] | [23] | [36] | [41] | [45]

O=C1c2cccnc2C(=O)c2c1c(C(=O)OCCCCCCN1CCCCC1)c1ccc(Br)cn21
0.063 µg/mL: [3] | [11] | [13] | [14] | [15] | [17] | [19] | [24] | [25] | [26] | [31] | [33] | [34] | [35] | [39] | [41] | [45]
2 µg/mL: [1]
0.016 µg/mL: [42]
≤ 0.0078 µg/mL: [5] | [6] | [8] | [9] | [43]
16 µg/mL: [32]
0.125 µg/mL: [4] | [18] | [20] | [21] | [23] | [27] | [47]
> 16 µg/mL: [38] | [44]
0.031 µg/mL: [2] | [7] | [10] | [12] | [16] | [22] | [28] | [30] | [36] | [37] | [46]
0.25 µg/mL: [29] | [40]

O=C1c2cccnc2C(=O)c2c1c(C(=O)OCCCCCCN1CCOCC1)c1ccc(Br)cn21
8 µg/mL: [1]
≤ 0.0078 µg/mL: [2] | [3] | [5] | [6] | [7] | [8] | [9] | [10] | [11] | [12] | [13] | [14] | [15] | [16] | [17] | [18] | [19] | [20] | [21] | [22] | [23] | [24] | [25] | [26] | [27] | [28] | [29] | [30] | [31] | [32] | [33] | [34] | [35] | [36] | [37] | [39] | [40] | [41] | [42] | [43] | [45] | [46] | [47]
0.031 µg/mL: [4]
> 16 µg/mL: [38]
16 µg/mL: [44]
